{"source": "patent US20160346319A1", "about": "“NO/HE GAS MIXTURE WITH BA[…]” (AIR LIQUIDE SANTE (INTERNATIONAL), priority 2014, published 2016)", "origin": "cited, not measured here", "system": "bacteria", "conditions": "high dose, certain publications", "data": [{"molecule": "[N]=O", "note": "[NO, nitric oxide]", "values": [{"measurement": "dose of NO showing an antibacterial effect", "value": "at least 150 ppm by volume"}]}]}
